Columns and labels:
EGFR L858R = target: T1, EGFR L858R (Homo sapiens, UniProt P00533, L858R); test: Biochemical EGFR inhibition assay (Caliper mobility shift), EGFR L858R; details: biochemical Caliper mobility shift assay, EGFR L858R enzyme; read-out: Enz EGFR L858R IC50
T1 construct: purchased SignalChem E10-122BG
Procedure, shortened: (§1)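 Peptide phosphorylation by the mutant enzyme is followed at 25 °C with either 1.0 mM ATP or ATP at Km, in HEPES pH 7.5 containing 0.015% Brij-35 and 1.0% DMSO. After 10–20% substrate turnover, 35 mM EDTA ends the reaction and mobility shift quantifies product.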

[1] = target: intracellular phosphorylation of EGFR (Tyr1068) in PC-9 cells (Homo sapiens, UniProt P00533, DEL746-750); test: PC-9 pEGFR AlphaLISA assay; assay type: cell-based; details: 4 hours incubation, read-out: Phos EGFR PC9 IC50
Sequence of intracellular phosphorylation of EGFR (Tyr1068) in PC-9 cells (P00533 with tags, fused parts or gaps DEL746-750): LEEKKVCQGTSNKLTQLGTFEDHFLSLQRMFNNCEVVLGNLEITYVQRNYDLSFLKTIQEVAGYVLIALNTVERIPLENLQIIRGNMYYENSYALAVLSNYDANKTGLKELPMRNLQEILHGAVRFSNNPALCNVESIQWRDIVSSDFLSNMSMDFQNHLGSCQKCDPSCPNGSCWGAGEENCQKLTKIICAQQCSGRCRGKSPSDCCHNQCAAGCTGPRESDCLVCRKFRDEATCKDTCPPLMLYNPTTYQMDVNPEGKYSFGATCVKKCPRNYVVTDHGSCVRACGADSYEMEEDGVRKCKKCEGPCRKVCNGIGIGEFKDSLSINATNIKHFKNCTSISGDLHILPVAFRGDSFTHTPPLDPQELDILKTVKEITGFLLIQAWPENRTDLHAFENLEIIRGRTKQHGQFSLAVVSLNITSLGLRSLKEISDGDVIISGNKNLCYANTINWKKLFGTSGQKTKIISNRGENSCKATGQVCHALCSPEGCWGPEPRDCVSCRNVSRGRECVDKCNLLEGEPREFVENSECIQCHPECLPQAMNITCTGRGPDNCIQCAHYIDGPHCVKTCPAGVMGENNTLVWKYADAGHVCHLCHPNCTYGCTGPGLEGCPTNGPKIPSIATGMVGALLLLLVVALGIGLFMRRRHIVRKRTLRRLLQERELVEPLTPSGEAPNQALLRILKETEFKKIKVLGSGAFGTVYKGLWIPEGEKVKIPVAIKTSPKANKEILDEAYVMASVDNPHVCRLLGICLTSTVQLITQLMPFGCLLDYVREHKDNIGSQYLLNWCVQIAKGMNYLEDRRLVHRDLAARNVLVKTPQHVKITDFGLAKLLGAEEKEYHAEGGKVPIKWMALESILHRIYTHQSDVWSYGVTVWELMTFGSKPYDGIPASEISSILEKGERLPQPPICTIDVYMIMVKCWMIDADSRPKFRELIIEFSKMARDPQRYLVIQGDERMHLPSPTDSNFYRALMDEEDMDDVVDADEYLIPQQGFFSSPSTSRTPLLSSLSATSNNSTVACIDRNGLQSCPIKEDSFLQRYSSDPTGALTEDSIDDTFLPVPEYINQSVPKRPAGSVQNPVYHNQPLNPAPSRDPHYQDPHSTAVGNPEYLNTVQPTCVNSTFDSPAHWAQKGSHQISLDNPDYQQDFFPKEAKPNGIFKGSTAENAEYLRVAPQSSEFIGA
Procedure, shortened: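 PC-9 cells (EGFR del746-750) in phenol-free DMEM/10% FBS, adhered overnight, then exposed to 10-point 4-fold compound dilutions for 4 h at 37 °C. Lysates assayed for pEGFR Tyr1068 by AlphaLISA SureFire Ultra; IC50 from percent pEGFR inhibition vs log concentration.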

EGFR (d746-750) = target: T2, EGFR (d746-750) (Homo sapiens, UniProt P00533, DEL746-750); test: Biochemical EGFR inhibition assay (Caliper mobility shift), EGFR (d746-750); details: biochemical Caliper mobility shift assay, EGFR Exon 19-del enzyme; read-out: Enz EGFR Exon 19-del IC50
T2 construct: purchased SignalChem E10-122JG
T2 sequence (P00533 with tags, fused parts or gaps DEL746-750 limits assumed): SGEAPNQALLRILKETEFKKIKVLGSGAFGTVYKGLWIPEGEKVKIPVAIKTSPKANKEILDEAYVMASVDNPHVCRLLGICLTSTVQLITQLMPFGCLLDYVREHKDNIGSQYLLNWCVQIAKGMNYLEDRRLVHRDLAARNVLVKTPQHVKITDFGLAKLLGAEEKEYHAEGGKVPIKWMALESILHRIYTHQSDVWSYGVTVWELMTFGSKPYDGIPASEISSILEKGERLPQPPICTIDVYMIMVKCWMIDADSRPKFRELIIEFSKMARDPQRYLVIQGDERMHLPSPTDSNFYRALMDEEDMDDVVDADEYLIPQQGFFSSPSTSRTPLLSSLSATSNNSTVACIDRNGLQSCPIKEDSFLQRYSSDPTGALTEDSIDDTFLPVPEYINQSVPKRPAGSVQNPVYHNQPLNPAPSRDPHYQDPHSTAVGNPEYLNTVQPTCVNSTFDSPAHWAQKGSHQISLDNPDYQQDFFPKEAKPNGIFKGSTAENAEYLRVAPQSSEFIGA
Procedure, shortened: as §1

T1 sequence (P00533 25-1210 L858R): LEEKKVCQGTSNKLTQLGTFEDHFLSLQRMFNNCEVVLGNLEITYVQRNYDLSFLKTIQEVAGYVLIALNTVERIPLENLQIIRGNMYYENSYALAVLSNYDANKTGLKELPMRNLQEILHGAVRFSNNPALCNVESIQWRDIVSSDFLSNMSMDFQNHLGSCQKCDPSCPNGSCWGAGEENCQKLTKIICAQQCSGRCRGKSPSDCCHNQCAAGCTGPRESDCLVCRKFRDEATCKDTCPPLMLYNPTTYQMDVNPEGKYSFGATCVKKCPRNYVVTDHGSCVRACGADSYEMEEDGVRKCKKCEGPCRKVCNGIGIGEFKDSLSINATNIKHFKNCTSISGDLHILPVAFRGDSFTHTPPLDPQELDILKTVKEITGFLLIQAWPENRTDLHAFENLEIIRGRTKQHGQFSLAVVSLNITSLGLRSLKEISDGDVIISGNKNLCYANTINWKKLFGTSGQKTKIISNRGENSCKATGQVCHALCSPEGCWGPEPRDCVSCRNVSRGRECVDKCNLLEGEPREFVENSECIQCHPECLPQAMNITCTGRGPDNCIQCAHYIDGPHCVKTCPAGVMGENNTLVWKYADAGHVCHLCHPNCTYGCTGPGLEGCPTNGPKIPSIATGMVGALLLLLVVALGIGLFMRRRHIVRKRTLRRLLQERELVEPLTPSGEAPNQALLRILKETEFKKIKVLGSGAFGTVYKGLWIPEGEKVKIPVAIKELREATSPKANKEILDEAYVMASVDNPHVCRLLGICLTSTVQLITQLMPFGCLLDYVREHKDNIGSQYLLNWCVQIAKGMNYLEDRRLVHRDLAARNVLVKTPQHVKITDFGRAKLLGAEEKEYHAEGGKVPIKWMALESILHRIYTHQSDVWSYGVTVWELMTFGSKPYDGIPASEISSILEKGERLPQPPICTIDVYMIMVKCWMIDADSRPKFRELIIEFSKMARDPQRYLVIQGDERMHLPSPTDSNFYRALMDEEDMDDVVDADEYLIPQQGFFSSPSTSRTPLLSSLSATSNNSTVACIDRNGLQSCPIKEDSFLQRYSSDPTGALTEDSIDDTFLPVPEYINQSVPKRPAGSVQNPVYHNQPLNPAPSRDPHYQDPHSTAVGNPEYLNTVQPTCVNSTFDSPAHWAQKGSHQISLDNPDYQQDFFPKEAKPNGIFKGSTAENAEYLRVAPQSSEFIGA

SMILES	IC50 (EGFR L858R) [nM]	IC50 [1] [nM]	IC50 (EGFR (d746-750)) [nM]
CN1CCC[C@H](Oc2cc(-c3cn(C)nn3)cc3ncnc(Nc4ccc5ncsc5c4)c23)C1 [Example 247, (S)-N-(7-(1-methyl-1H-1,2,3-triazol-4-yl)-5-((1-methylpiperidin-3-yl)oxy)quinazolin-4-yl)benzo[d]thiazol-6-amine]	≤ 10	10.1 to 50	≤ 10
COc1cc(-c2cnn(C)c2)cc2ncnc(Nc3ccc4ncsc4c3F)c12 [Example 3, 7-fluoro-N-(5-methoxy-7-(1-methyl-1H-pyrazol-4-yl)quinazolin-4-yl)benzo[d]thiazol-6-amine]	≤ 10	10.1 to 50	≤ 10
Cn1cc(-c2cc(OCC(=O)N3CC4(COC4)C3)c3c(Nc4ccc5ncsc5c4F)ncnc3c2)cn1 [Example 277, 2-((4-((7-fluorobenzo[d]thiazol-6-yl)amino)-7-(1-methyl-1H-pyrazol-4-yl)quinazolin-5-yl)oxy)-1-(2-oxa-6-azaspiro[3.3]heptan-6-yl)ethan-1-one]	≤ 10	≤ 10	≤ 10
C[C@@H](Oc1cc(N2CC3(COC3)C2)cc2ncnc(Nc3ccc4ncsc4c3)c12)C1COC1 [Example 204, (R)-N-(5-(1-(oxetan-3-yl)ethoxy)-7-(2-oxa-6-azaspiro[3.3]heptan-6-yl)quinazolin-4-yl)benzo[d]thiazol-6-amine]	≤ 10	≤ 10	≤ 10
CC[C@H](Oc1cc(-c2cnn(C)c2)cc2ncnc(Nc3ccc4ncsc4c3F)c12)C1CN(C)C1 (single isomer, unassigned) [Example 389]	10.1 to 50	10.1 to 50	≤ 10
C[C@H](Oc1cc(N2CCN(C)C2=O)cc2ncnc(Nc3ccc4ncsc4c3)c12)C1COC1 (single isomer, unassigned) [Example 158]	≤ 10	10.1 to 50	≤ 10
C[C@@H](Oc1cc(-c2cnn(C)c2)cc2ncnc(Nc3ccc4ncsc4c3)c12)[C@H](C)N(C)C (single isomer, unassigned) [Example 144]	10.1 to 50	10.1 to 50	≤ 10
COCCN1CCN(c2cc(O[C@H](C)COC)c3c(Nc4ccc5ncsc5c4)ncnc3c2)CC1 [Example 201, (R)-N-(7-(4-(2-methoxyethyl)piperazin-1-yl)-5-((1-methoxypropan-2-yl)oxy)quinazolin-4-yl)benzo[d]thiazol-6-amine]	≤ 10	10.1 to 50	≤ 10
CC(C)N1CC[C@@H](Oc2cc(-c3cnn(C)c3)cc3ncnc(Nc4ccc5ncsc5c4)c23)C1=O (single isomer, unassigned) [Example 63]	≤ 10	≤ 10	≤ 10
COC[C@@H](C)Oc1cc(-n2cc([C@@H](C)O)cn2)cc2ncnc(Nc3ccc4ncsc4c3F)c12 (single isomer, unassigned) [Example A19]	≤ 10	≤ 10	≤ 10
COc1cc2ncnc(Nc3ccc4ncsc4c3)c2cc1NC(=O)CCN1CCCCC1 [Example 400, N-(4-(benzo[d]thiazol-6-ylamino)-7-methoxyquinazolin-6-yl)-3-(piperidin-1-yl)propanamide]	10.1 to 50	10.1 to 50	≤ 10
Cn1cc(-c2cc(OC3CCN(C4COC4)CC3)c3c(Nc4ccc5ncsc5c4)ncnc3c2)cn1 [Example 318, N-(7-(1-methyl-1H-pyrazol-4-yl)-5-((1-(oxetan-3-yl)piperidin-4-yl)oxy)quinazolin-4-yl)benzo[d]thiazol-6-amine]	≤ 10	≤ 10	≤ 10
COc1nn(C)cc1-c1cc(O[C@@H]2CCN(C)C[C@@H]2F)c2c(Nc3ccc4ncsc4c3)ncnc2c1 [Example 362, N-(5-(((3S,4R)-3-fluoro-1-methylpiperidin-4-yl)oxy)-7-(3-methoxy-1-methyl-1H-pyrazol-4-yl)quinazolin-4-yl)benzo[d]thiazol-6-amine]	≤ 10	≤ 10	≤ 10
COc1cn(C)nc1-c1cc(O[C@H](C)C2COC2)c2c(Nc3ccc4ncsc4c3)ncnc2c1 (single isomer, unassigned) [Example 121]	≤ 10	10.1 to 50	≤ 10
CO[C@@H]1CN(C)CC[C@H]1Oc1cc(-c2cnn(C)c2)cc2ncnc(Nc3ccc4ncsc4c3)c12 (single isomer, unassigned) [Example A43]	≤ 10	10.1 to 50	≤ 10
CC(CN(C)C)Oc1cc(N2CC(C)OC(C)C2)cc2ncnc(Nc3ccc4ncsc4c3)c12 (single isomer, unassigned) [Example 150]	10.1 to 50	≤ 10	≤ 10
C[C@H](CN1CCC1)Oc1cc(-c2cnn(C)c2)cc2ncnc(Nc3ccc4ncsc4c3)c12 [Example 394, (R)-N-(5-((1-(azetidin-1-yl)propan-2-yl)oxy)-7-(1-methyl-1H-pyrazol-4-yl)quinazolin-4-yl)benzo[d]thiazol-6-amine]	≤ 10	≤ 10	≤ 10
Cn1cc(-c2cc(OC3CC3)c3c(Nc4ccc5ncsc5c4F)ncnc3c2)cn1 [Example 76, N-(5-cyclopropoxy-7-(1-methyl-1H-pyrazol-4-yl)quinazolin-4-yl)-7-fluorobenzo[d]thiazol-6-amine]	≤ 10	10.1 to 50	≤ 10
COc1nn(C)cc1-c1cc(O[C@H]2CCNC[C@H]2F)c2c(Nc3ccc4ncsc4c3)ncnc2c1 [Example 365, N-(5-(((3R,4S)-3-fluoropiperidin-4-yl)oxy)-7-(3-methoxy-1-methyl-1H-pyrazol-4-yl)quinazolin-4-yl)benzo[d]thiazol-6-amine]	≤ 10	≤ 10	≤ 10
CN1CC[C@@H](Oc2cc(-c3cnn(C)c3)cc3ncnc(Nc4ccc5ncsc5c4)c23)C1 [Example 35, (R)-N-(7-(1-methyl-1H-pyrazol-4-yl)-5-((1-methylpyrrolidin-3-yl)oxy)quinazolin-4-yl)benzo[d]thiazol-6-amine]	10.1 to 50	10.1 to 50	≤ 10
COc1nn(C)cc1-c1cc(O[C@H]2CN(C)C[C@@H]2F)c2c(Nc3ccc4ncsc4c3)ncnc2c1 (single isomer, unassigned) [Example 378]	≤ 10	≤ 10	≤ 10
CN(C)CCOc1cc(-c2cnn(C)c2)cc2ncnc(Nc3ccc4ncsc4c3)c12 [Example A60, N-(5-(2-(dimethylamino)ethoxy)-7-(1-methyl-1H-pyrazol-4-yl)quinazolin-4-yl)benzo[d]thiazol-6-amine]	10.1 to 50	10.1 to 50	≤ 10
CN1CC[C@@H](Oc2cc(-c3cnn(C)c3)cc3ncnc(Nc4ccc5ncsc5c4F)c23)[C@H](F)C1 [Example 349, 7-fluoro-N-(5-(((3R,4R)-3-fluoro-1-methylpiperidin-4-yl)oxy)-7-(1-methyl-1H-pyrazol-4-yl)quinazolin-4-yl)benzo[d]thiazol-6-amine]	≤ 10	≤ 10	≤ 10
COCC[C@@H](C)Oc1cc(-c2cnn(C)c2)cc2ncnc(Nc3ccc4ncsc4c3F)c12 (single isomer, unassigned) [Example 108]	≤ 10	≤ 10	≤ 10
COc1nn(C)cc1-c1cc(OC2CC2)c2c(Nc3ccc4ncsc4c3)ncnc2c1 [Example 77, N-(5-cyclopropoxy-7-(3-methoxy-1-methyl-1H-pyrazol-4-yl)quinazolin-4-yl)benzo[d]thiazol-6-amine]	≤ 10	≤ 10	≤ 10
Cn1cc(-c2cc(O[C@@H]3C[C@@H](O)[C@@H](O)C3)c3c(Nc4ccc5ncsc5c4)ncnc3c2)cn1 (single isomer, unassigned) [Example A22]	≤ 10	10.1 to 50	≤ 10
C[C@H]1CN(C)CCN1C(=O)Nc1cc2c(Nc3ccc4ncsc4c3)ncnc2cc1-c1ccn(C)n1 [Example 399, (S)-N-(4-(benzo[d]thiazol-6-ylamino)-7-(1-methyl-1H-pyrazol-3-yl)quinazolin-6-yl)-2,4-dimethylpiperazine-1-carboxamide]	≤ 10	≤ 10	≤ 10
Cn1cc(-c2cc(O[C@H]3CC[C@@H](N(C)C)CC3)c3c(Nc4ccc5ncsc5c4)ncnc3c2)cn1 [Example 22, N-(5-(((1s,4s)-4-(dimethylamino)cyclohexyl)oxy)-7-(1-methyl-1H-pyrazol-4-yl)quinazolin-4-yl)benzo[d]thiazol-6-amine]	≤ 10	≤ 10	≤ 10
CN1CCC(Oc2cc(-c3ccc(S(C)(=O)=O)cc3)cc3ncnc(Nc4ccc5ncsc5c4)c23)CC1 [Example 243, N-(5-((1-methylpiperidin-4-yl)oxy)-7-(4-(methylsulfonyl)phenyl)quinazolin-4-yl)benzo[d]thiazol-6-amine]	10.1 to 50	10.1 to 50	10.1 to 50
C[C@@H](Oc1cc(-c2cnn(C)c2)cc2ncnc(Nc3ccc4ncsc4c3F)c12)[C@H]1CCOC1 (single isomer, unassigned) [Example 88]	≤ 10	≤ 10	≤ 10

Reference: patent US20260207602A1, “EGFR INHIBITORS” (Blueprint Medicines Corporation, priority 2022, published 2026)
